Tests used:
[1] = target: Glycogen synthase kinase-3 alpha (Homo sapiens, UniProt P49840); assay: Inhibition of human GSK-3alpha S449A mutant (2 to end residues) using phospho GS2 peptide as substrate after 40 mins in presence of [gamma-33ATP] by scintillation counting method
[2] = target: Cyclin-dependent kinase 1/cyclin B1 (Homo sapiens) (UniProt P06493+P14635); assay: Inhibition of recombinant full length human CDK1/CyclinB assessed as residual activity at 1 uM using Histone H1 as substrate incubated for 40 mins in presence of [gamma-33ATP] by scintillation counting based radiometry assay relative to control; type: protein-complex assay
[3] = target: Rhodopsin kinase GRK7 (Homo sapiens) (UniProt Q8WTQ7); assay: Inhibition of recombinant full length human GRK7 assessed as residual activity at 1 uM using casein as substrate at 40 mins in presence of [gamma-33ATP] by scintillation counting based radiometry assay relative to control
[4] = target: Mitogen-activated protein kinase 1 (Homo sapiens) (UniProt P28482); assay: Inhibition of recombinant full length human MAPK1 assessed as residual activity at 1 uM using myelin basic protein as substrate incubated for 40 mins in presence of [gamma-33P]ATP by scintillation counting based radiometry assay relative to control
Homo sapiens = species on record: Homo sapiens; assay: Inhibition of recombinant human MAPKAPK2 A399G mutant (46 to end residues) assessed as residual activity at 1 uM using KKLNRTLSVA as substrate incubated for 40 mins in presence of [gamma-33ATP by scintillation counting based radiometry assay relative to control
[5] = target: MAP kinase-activated protein kinase 3 (Homo sapiens) (UniProt Q16644); assay: Inhibition of recombinant human MAPKAPK3 (2 to end residues) assessed as residual activity at 1 uM using KKLNRTLSVA as substrate incubated for 40 mins in presence of [gamma-33ATP by scintillation counting based radiometry assay relative to control
[6] = test system: RAC-gamma serine/threonine-protein kinase (Homo sapiens), Q9Y243 [S472D]; assay: Inhibition of recombinant human PKBgamma S472D mutant (117 to end residues) assessed as residual activity at 1 uM using GRPRTSSFAEGKK as substrate incubated for 40 mins in presence of [gamma33P]ATP by scintillation counting based radiometry assay relative to control
[7] = target: Protein kinase C beta type (Homo sapiens) (UniProt P05771); assay: Inhibition of recombinant human PKCbeta1 (2 to end residues) assessed as residual activity at 1 uM using histone H1 as substrate measured after 40 mins in presence of [gamma33P]ATP by scintillation counting method relative to control
[8] = target: T1, cGMP-dependent protein kinase 1 (Homo sapiens) (UniProt Q13976); assay: Inhibition of recombinant full-length human PKG1alpha assessed as residual activity at 1 uM using RRRLSFAEPG as substrate measured after 40 mins in presence of [gamma33P]ATP by scintillation counting method relative to control
T1 sequence (whole entry): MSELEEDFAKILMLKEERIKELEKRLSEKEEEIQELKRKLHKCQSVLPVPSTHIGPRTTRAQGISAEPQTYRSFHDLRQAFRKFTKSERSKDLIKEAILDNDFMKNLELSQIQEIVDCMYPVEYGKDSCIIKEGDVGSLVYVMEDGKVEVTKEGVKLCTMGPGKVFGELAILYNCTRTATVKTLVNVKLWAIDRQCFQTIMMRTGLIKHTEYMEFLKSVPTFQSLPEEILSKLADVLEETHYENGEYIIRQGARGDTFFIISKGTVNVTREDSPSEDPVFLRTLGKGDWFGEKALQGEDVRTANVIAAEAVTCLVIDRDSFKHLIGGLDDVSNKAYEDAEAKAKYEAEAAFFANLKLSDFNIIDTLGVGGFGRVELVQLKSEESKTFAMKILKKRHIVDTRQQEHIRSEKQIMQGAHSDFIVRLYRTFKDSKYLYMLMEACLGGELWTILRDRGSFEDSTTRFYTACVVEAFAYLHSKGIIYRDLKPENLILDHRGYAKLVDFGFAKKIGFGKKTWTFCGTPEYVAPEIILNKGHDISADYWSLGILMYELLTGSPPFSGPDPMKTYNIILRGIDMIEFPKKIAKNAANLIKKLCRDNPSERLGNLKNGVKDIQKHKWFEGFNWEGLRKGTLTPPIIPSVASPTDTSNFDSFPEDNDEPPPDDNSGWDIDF

[9] = target: Serine/threonine-protein kinase PLK3 (Homo sapiens) (UniProt Q9H4B4); assay: Inhibition of recombinant human Plk3 (19 to 301 residues) assessed as residual activity at 1 uM using casein as substrate measured after 40 mins in presence of [gamma33P]ATP by scintillation counting method relative to control
[10] = target: Tyrosine-protein kinase receptor TYRO3 (Homo sapiens) (UniProt Q06418); assay: Inhibition of recombinant human RSE (451 to end residues) assessed as residual activity at 1 uM using KVEKIGEGTYGVVYK as substrate measured after 40 mins in presence of [gamma33P]ATP by scintillation counting method relative to control
[11] = target: STE20-like serine/threonine-protein kinase (Homo sapiens) (UniProt Q9H2G2); assay: Inhibition of human SLK (1 to 373 residues) assessed as residual activity at 1 uM using RLGRDKYKTLRQIRQ as substrate measured after 40 mins in presence of [gamma33P]ATP by scintillation counting method relative to control
[12] = target: Serine/threonine-protein kinase 32C (Homo sapiens) (UniProt Q86UX6); assay: Inhibition of recombinant full-length human STK32C at 1 uM assessed as residual activity at 1 uM using casein as substrate measured after 120 mins in presence of [gamma33P]ATP by scintillation counting method relative to control
[13] = target: Serine/threonine-protein kinase TAO2 (Homo sapiens) (UniProt Q9UL54); assay: Inhibition of human TAO2 (1 to 320 residues) assessed as residual activity at 1 uM using myelin basic protein as substrate measured after 40 mins in presence of [gamma33P]ATP by scintillation counting method relative to control
[14] = test system: Serine/threonine-protein kinase TAO3 (Homo sapiens), Q9H2K8 [UNDEFINED MUTATION]; assay: Inhibition of human TAO3 (1 to 411 residues) assessed as residual activity at 1 uM using myelin basic protein as substrate measured after 40 mins in presence of [gamma33P]ATP by scintillation counting method relative to control
[15] = target: Tau-tubulin kinase 2 (Homo sapiens) (UniProt Q6IQ55); assay: Inhibition of human TTBK2 (1 to 331 residues) assessed as residual activity at 1 uM using Casein as substrate measured after 40 mins in presence of [gamma33P]ATP by scintillation counting method relative to control
[16] = target: Serine/threonine-protein kinase VRK1 (Homo sapiens) (UniProt Q99986); assay: Inhibition of human VRK1 assessed as residual activity at 1 uM by radiometric method relative to control
[17] = target: Serine/threonine-protein kinase WNK3 (Homo sapiens) (UniProt Q9BYP7); assay: Inhibition of human WNK3 (1 to 434 residues) assessed as residual activity at 1 uM using myelin basic protein as substrate measured after 40 mins in presence of [gamma33P]ATP by scintillation counting method relative to control

Rhodopsin kinase GRK7 (Homo sapiens), sequence (Q8WTQ7 whole entry): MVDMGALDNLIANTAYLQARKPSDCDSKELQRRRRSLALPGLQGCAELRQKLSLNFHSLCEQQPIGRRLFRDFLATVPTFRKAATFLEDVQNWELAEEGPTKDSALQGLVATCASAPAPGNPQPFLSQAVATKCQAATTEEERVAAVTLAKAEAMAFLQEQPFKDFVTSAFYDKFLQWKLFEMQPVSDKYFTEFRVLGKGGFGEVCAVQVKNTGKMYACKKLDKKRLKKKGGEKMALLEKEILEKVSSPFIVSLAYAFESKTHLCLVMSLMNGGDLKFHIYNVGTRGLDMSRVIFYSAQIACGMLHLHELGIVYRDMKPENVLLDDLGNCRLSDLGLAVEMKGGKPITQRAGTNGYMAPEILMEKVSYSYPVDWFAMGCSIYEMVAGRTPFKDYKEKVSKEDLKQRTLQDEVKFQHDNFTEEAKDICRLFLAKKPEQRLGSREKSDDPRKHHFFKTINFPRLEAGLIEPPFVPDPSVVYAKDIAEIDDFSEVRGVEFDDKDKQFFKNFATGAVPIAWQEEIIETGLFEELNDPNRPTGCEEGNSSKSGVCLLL
Serine/threonine-protein kinase PLK3 (Homo sapiens), sequence (Q9H4B4 whole entry, looked up, the tested form may be a part): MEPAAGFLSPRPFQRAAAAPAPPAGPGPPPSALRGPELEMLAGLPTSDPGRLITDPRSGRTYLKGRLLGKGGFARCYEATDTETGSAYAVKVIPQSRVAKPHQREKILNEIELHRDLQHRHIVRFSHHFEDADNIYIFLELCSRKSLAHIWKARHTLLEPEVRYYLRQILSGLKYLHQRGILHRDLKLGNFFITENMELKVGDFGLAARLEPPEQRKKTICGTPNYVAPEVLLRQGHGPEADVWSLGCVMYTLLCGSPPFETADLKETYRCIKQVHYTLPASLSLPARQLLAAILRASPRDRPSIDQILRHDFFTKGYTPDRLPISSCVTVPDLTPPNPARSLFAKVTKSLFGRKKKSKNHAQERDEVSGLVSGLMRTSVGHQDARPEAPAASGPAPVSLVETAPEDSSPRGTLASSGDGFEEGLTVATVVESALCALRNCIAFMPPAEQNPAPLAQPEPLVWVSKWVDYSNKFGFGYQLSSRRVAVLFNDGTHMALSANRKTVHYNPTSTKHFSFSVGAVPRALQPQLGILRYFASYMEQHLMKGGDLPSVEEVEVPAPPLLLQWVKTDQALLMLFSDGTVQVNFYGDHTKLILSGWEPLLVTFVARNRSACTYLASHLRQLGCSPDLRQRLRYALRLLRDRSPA
RAC-gamma serine/threonine-protein kinase (Homo sapiens), Q9Y243 [S472D], sequence (Q9Y243 whole entry S472D): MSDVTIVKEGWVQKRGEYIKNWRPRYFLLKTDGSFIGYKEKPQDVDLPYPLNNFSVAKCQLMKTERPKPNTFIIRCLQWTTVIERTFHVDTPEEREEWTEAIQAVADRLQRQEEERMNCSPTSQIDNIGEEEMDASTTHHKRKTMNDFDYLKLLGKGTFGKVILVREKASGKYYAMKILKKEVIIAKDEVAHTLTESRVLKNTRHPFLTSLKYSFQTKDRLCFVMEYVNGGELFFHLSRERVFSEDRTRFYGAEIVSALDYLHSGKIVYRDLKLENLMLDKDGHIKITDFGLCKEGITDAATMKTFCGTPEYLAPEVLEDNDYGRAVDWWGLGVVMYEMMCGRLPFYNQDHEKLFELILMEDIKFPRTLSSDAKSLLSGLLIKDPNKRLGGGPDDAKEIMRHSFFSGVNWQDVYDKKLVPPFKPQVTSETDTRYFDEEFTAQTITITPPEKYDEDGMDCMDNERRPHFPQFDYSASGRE
MAP kinase-activated protein kinase 3 (Homo sapiens), sequence (Q16644 whole entry, looked up): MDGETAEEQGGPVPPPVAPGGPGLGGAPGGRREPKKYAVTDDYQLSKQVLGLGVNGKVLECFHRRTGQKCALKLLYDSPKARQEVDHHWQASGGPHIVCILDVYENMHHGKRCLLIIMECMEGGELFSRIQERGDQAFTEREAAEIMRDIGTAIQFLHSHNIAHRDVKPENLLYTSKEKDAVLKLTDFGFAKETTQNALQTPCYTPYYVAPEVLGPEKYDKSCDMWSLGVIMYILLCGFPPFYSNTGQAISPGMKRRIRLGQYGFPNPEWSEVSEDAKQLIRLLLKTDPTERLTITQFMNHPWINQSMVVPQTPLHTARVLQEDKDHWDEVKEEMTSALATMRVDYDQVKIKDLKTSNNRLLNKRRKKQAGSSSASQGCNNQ
Cyclin-dependent kinase 1/cyclin B1 (Homo sapiens), sequence (P06493 whole entry, looked up): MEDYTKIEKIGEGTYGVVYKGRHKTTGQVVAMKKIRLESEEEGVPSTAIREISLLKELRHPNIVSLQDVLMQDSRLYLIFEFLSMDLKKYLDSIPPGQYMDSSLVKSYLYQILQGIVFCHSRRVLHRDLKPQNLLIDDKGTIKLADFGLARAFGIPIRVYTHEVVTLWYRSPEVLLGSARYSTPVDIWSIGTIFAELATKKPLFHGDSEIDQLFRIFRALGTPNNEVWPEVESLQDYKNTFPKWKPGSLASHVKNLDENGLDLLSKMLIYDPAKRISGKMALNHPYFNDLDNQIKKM
Cyclin-dependent kinase 1/cyclin B1 (Homo sapiens), sequence (P14635 whole entry, looked up): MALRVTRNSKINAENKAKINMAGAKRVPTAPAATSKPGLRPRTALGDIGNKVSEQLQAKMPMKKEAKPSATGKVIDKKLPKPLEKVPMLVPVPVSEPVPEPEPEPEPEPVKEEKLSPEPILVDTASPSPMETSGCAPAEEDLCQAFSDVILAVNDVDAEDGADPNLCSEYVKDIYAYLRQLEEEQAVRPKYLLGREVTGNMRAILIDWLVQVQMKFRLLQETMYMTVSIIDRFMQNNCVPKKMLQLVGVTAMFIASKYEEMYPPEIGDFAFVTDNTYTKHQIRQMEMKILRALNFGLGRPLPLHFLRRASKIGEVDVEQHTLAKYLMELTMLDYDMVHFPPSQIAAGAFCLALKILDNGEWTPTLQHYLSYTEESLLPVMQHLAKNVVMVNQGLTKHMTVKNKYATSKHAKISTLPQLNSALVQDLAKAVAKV
Tau-tubulin kinase 2 (Homo sapiens), sequence (Q6IQ55 whole entry, the tested form may be a part): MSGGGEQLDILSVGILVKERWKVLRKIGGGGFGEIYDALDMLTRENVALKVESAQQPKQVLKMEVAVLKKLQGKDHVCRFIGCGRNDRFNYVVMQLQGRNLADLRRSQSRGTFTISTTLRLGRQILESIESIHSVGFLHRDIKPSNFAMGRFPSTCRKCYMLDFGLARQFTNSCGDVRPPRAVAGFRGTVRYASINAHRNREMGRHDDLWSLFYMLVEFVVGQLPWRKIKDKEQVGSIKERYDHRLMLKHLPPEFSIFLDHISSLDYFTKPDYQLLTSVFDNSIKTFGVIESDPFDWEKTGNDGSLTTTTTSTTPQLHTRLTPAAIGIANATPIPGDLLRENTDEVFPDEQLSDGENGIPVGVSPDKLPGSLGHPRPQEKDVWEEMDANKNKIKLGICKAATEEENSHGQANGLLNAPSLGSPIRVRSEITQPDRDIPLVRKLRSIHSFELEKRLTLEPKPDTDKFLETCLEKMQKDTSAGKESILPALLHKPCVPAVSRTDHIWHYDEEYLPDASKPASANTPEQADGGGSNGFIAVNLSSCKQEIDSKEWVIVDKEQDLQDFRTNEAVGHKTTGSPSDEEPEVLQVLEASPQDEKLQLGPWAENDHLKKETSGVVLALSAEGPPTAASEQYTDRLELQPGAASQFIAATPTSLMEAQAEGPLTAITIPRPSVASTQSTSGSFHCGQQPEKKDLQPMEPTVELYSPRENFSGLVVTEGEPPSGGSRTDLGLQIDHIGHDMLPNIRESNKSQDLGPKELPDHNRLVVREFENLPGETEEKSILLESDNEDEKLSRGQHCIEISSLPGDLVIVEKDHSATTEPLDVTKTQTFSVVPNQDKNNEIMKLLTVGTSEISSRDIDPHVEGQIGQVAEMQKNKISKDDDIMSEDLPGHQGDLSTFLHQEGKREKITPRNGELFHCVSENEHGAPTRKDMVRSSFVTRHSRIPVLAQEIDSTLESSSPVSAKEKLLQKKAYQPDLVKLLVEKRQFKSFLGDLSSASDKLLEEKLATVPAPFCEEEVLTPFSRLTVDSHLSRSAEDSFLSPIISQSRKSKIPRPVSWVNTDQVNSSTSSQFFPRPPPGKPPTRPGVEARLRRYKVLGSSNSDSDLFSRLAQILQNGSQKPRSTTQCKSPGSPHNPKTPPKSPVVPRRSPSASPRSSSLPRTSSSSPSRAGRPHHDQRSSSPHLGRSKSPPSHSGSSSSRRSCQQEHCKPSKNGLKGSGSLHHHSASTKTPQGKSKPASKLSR
Serine/threonine-protein kinase VRK1 (Homo sapiens), sequence (Q99986 whole entry, the tested form may be a part): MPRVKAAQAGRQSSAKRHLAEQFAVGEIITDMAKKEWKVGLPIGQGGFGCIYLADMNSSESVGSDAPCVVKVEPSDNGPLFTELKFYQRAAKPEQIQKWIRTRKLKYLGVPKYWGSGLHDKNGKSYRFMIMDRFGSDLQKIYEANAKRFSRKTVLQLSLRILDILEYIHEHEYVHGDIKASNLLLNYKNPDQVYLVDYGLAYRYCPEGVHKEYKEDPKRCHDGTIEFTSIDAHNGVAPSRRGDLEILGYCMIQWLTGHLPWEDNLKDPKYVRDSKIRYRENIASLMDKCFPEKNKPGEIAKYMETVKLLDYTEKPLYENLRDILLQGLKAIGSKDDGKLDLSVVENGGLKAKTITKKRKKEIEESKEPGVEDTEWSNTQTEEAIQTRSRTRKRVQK
Serine/threonine-protein kinase 32C (Homo sapiens), sequence (Q86UX6 whole entry, the tested form may be a part): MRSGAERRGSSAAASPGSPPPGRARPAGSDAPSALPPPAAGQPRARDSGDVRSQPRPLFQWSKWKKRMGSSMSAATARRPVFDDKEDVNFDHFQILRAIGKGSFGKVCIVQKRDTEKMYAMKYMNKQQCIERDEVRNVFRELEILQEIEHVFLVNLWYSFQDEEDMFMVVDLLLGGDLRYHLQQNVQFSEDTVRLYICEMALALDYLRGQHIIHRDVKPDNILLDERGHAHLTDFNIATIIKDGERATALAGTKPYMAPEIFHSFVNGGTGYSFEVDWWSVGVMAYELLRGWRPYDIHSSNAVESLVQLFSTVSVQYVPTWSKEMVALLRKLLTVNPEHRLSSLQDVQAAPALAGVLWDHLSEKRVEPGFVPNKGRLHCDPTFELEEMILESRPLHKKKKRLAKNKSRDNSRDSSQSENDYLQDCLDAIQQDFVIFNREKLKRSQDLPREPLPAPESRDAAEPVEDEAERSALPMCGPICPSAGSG

| SMILES | IC50 [1] [nM] | Activity [2] [%] | Activity [3] [%] | Activity [4] [%] | Activity (Homo sapiens) [%] | Activity [5] [%] | Activity [6] [%] | Activity [7] [%] | Activity [8] [%] | Activity [9] [%] | Activity [10] [%] | Activity [11] [%] | Activity [12] [%] | Activity [13] [%] | Activity [14] [%] | Activity [15] [%] | Activity [16] [%] | Activity [17] [%] |
| --- | --- | --- | --- | --- | --- | --- | --- | --- | --- | --- | --- | --- | --- | --- | --- | --- | --- | --- |
| C=CCOC(=O)c1cc(-c2ccc(/C=C3/NC(=S)NC3=O)o2)ccc1Cl | 33 | 65 | 98 | 106 | 106 | 96 | 72 | 113 | 93 | 98 | 100 | 87 | 94 | 100 | 87 | 111 | 99 | 102 |
| N=C1NC(=O)/C(=C\c2ccc(-c3cccc([N+](=O)[O-])c3)o2)S1 | 49 | 73 | 96 | 97 | 103 | 97 | 100 | 100 | 71 | 108 | 110 | 95 | 101 | 79 | 81 | 107 | 92 | 99 |

Reference: ChEMBL document CHEMBL4334438, “Discovery of novel glycogen synthase kinase-3α inhibitors: Structure-based virtual screening, preliminary SAR and biological evaluation for treatment of acute myeloid leukemia” (Eur J Med Chem, 2019)
